Laboratory results published in patent US6747023B1 (Daiichi Pharmaceutical Co., Ltd., priority 1998, dated 2004).
Where a name gives a salt, the structure may show the parent alone.

The compounds below were run against T1, human FXa (Homo sapiens, UniProt P00742) (assay: Measurement of FXa inhibitory action (IC50)). Details: 0.05 U/ml human FXa, substrate S2222, absorbance at 405 nm, room temperature; read-out: Concentration (nM) of the sample at which 50% of Fxa activity is inhibited.
T1 construct: purchased Cosmobio-ERL HFXa-1011
T1 sequence (P00742 235-488 limits assumed): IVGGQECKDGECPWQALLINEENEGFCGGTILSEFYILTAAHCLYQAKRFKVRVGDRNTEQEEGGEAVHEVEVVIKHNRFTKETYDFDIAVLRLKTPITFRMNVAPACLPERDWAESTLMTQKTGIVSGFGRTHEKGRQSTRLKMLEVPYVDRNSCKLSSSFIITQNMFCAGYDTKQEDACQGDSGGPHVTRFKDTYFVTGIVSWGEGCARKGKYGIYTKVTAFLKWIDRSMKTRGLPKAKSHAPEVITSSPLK
T1 sequence (P00742 41-179 partner limits assumed): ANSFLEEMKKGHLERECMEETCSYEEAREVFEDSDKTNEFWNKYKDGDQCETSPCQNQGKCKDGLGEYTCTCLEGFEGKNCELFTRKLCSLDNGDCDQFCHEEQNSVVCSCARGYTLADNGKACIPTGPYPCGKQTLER
Type: biochemical
Procedure: Measurement of FXa Inhibitory Action (IC50)
From the below-described equation, an inhibitory ratio % of each sample was determined.
Inhibitory ratio (%)=(1−OD of sample÷OD of control)×100

Point of comparison: O=C(c1cnc(-c2ccncc2)nc1)N1CCN(S(=O)(=O)c2cc3cc(Cl)ccc3[nH]2)CC1 [Example A-131, 1-[(5-Chloroindol-2-yl)sulfonyl]-4-[[2-(pyridin-4-yl)pyrimidin-5-yl]carbonyl]piperazine], IC50 19 nM. Against it:
- O=C(c1ccc(-c2ccncc2)cc1)N1CCN(S(=O)(=O)c2cc3cc(Cl)ccc3[nH]2)CC1 [Example A-101, 1-[(5-Chloroindol-2-yl)sulfonyl]-4-[4-(pyridin-4-yl)benzoyl]piperazine] — 2-fold lower, 9.5 nM
- O=C(c1ccc(-c2cc[n+]([O-])cc2)cc1)N1CCN(S(=O)(=O)c2cc3ccc(Cl)cc3[nH]2)CC1 [Example A-106, 4-[4-[[4-[(6-Chloroindol-2-yl)sulfonyl]piperazin-1-yl]carbonyl]phenyl]pyridine N-oxide] — 22-fold higher, 420 nM
- O=C(c1ccc(-c2ccncc2)cc1)N1CCN(S(=O)(=O)c2cc3ccc(Cl)cc3s2)CC1 [Example A-97, 1-[(6-Chlorobenzo[b]thien-2-yl)sulfonyl]-4-[4-(pyridin-4-yl)benzoyl]piperazine hydrochloride] — 4.3-fold higher, 82 nM
- C#Cc1ccc2[nH]c(S(=O)(=O)N3CCN(C(=O)c4ccc(-c5cc[n+]([O-])cc5)cc4)CC3)cc2c1 [Example A-120, 4-[4-[[4-[(5-Ethynylindol-2-yl)sulfonyl]piperazin-1-yl]carbonyl]phenyl]pyridine N-oxide] — within 1.5-fold, 14 nM
- O=C(c1cnc(-c2cc[n+]([O-])cc2)nc1)N1CCN(S(=O)(=O)c2cc3cc(Cl)ccc3[nH]2)CC1 [Example A-135, 4-[5-[[4-[(5-Chloroindol-2-yl)sulfonyl]piperazin-1-yl]carbonyl]pyrimidin-2-yl]pyridine N-oxide] — within 1.5-fold, 14 nM
- O=C(c1ccc(-c2ccccn2)cc1)N1CCN(S(=O)(=O)c2cc3cc(Cl)ccc3[nH]2)CC1 [Example A-90, 1-[(5-Chloroindol-2-yl)sulfonyl]-4-[4-(pyridin-2-yl)benzoyl]piperazine hydrochloride] — within 1.5-fold, 16 nM
- O=C(CC1CN(S(=O)(=O)c2cc3ccc(Cl)cc3s2)CCN1C(=O)c1ncc(-c2cccc[n+]2[O-])cn1)NC1CC1 (stereo not shown) [Example A-293, 2-[2-[[4-[(6-Chlorobenzo[b]thien-2-yl)sulfonyl]-2-[(N-cyclopropylcarbamoyl)methyl]piperazin-1-yl]carbonyl]pyrimidin-5-yl]pyridine N-oxide] — 10-fold lower, 1.9 nM
- O=C(c1ccc(-c2ccncc2)cc1)N1CCN(S(=O)(=O)c2cc3cc(Cl)ccc3o2)CC1 [Example A-85, 1-[(5-Chlorobenzo[b]furan-2-yl)sulfonyl]-4-[4-(pyridin-4-yl)benzoyl]piperazine] — 53-fold higher, 1000 nM
- 4-[(6-Chlorobenzo[b]thien-2-yl)sulfonyl]-2-(hydroxymethyl)-1-[5-(pyridin-4-yl)pyrimidin-2-yl]piperazine hydrochloride [Example A-277] — 7-fold lower, 2.7 nM
- O=C(c1ccc(-c2ccccn2)cc1)N1CCN(S(=O)(=O)c2cc3ccc(Cl)cc3s2)CC1 [Example A-98, 1-[(6-Chlorobenzo[b]thien-2-yl)sulfonyl]-4-[4-(pyridin-2-yl)benzoyl]piperazine hydrochloride] — 6.6-fold higher, 125 nM
- Cc1cc(-c2cnc(C(=O)N3CCN(S(=O)(=O)c4cc5cc(Cl)ccc5[nH]4)CC3)nc2)ccn1 [Example A-186, 1-[(5-Chloroindol-2-yl)sulfonyl]-4-[[5-(2-methylpyridin-4-yl)pyrimidin-2-yl]carbonyl]piperazine] — 10-fold lower, 1.9 nM
- O=C(c1ccc(-c2ccccn2)cc1)N1CCN(S(=O)(=O)c2ccc3cc(Cl)ccc3c2)CC1 [Example A-17, 1-[(6-Chloronaphthalen-2-yl)sulfonyl]-4-[4-(pyridin-2-yl)benzoyl]piperazine hydrochloride] — 9.5-fold higher, 180 nM
- NC(=O)CC1CN(S(=O)(=O)c2cc3cc(Cl)ccc3[nH]2)CCN1C(=O)c1ccc(-c2ccncc2)cc1 (stereo not shown) [Example A-130, 2-Carbamoylmethyl-4-[(5-chloroindol-2-yl)sulfonyl]-1-[4-(pyridin-4-yl)benzoyl]piperazine] — 5.3-fold lower, 3.6 nM
- O=C(c1ccc(-c2ccncc2)cc1)N1CCN(S(=O)(=O)c2cc3ccc(Cl)cc3o2)CC1 [Example A-86, 1-[(6-Chlorobenzo[b]furan-2-yl)sulfonyl]-4-[4-(pyridin-4-yl)benzoyl]piperazine] — higher, > 10000 nM
- Cn1c(S(=O)(=O)N2CCN(C(=O)c3ccc(-c4ccncc4)cc3)CC2)cc2cc(Cl)ccc21 [Example A-91, 1-[(5-Chloro-1-methylindol-2-yl)sulfonyl]-4-[4-(pyridin-4-yl)benzoyl]piperazine] — 370-fold higher, 7000 nM
- CCC1CN(S(=O)(=O)c2cc3cc(Cl)ccc3[nH]2)CCN1C(=O)c1ncc(-c2cccc[n+]2[O-])cn1 (stereo not shown) [Example A-224, 2-[2-[[4-[(5-Chloroindol-2-yl)sulfonyl]-2-ethylpiperazin-1-yl]carbonyl]pyrimidin-5-yl]pyridine N-oxide] — 2.5-fold lower, 7.6 nM
- O=C(CC1CN(S(=O)(=O)c2cc3cc(Cl)ccc3[nH]2)CCN1C(=O)C1CC=C(c2cc[n+]([O-])cc2)CC1)N1CCCCC1 (stereo not shown) [Example A-259, 4-[4-[[4-[(5-Chloroindol-2-yl)sulfonyl]-2-[(piperidin-1-yl)carbonylmethyl]piperazin-1-yl]carbonyl]-1-cyclohexen-1-yl]pyridine N-oxide] — 5.4-fold lower, 3.5 nM
- Cc1cc(-c2cnc(C(=O)N3CCN(S(=O)(=O)c4cc5cc(Cl)ccc5[nH]4)CC3)s2)cc[n+]1[O-] [Example A-229, 4-[2-[[4-[(5-Chloroindol-2-yl)sulfonyl]piperazin-1-yl]carbonyl]thiazol-5-yl]-2-methylpyridine N-oxide] — 12-fold lower, 1.6 nM
- O=C(c1ncc(-c2cc[n+]([O-])cc2)s1)N1CCN(S(=O)(=O)c2cc3ccc(Cl)cc3s2)CC1 [Example A-239, 4-[2-[[4-[(6-Chlorobenzo[b]thien-2-yl)sulfonyl]piperazin-1-yl]carbonyl]thiazol-5-yl]pyridine N-oxide] — 5.4-fold lower, 3.5 nM
- O=C(c1ncc(-c2cccc[n+]2[O-])cn1)N1CCN(S(=O)(=O)c2cc3cc(Cl)ccc3[nH]2)CC1 [Example A-183, 2-[2-[[4-[(5-Chloroindol-2-yl)sulfonyl]piperazin-1-yl]carbonyl]pyrimidin-5-yl]pyridine N-oxide] — 4-fold lower, 4.7 nM
- 1-[(5-Chloroindol-2-yl)sulfonyl]-4-[4-methyl-2-(pyridin-4-yl)thiazol-5-yl]piperazine [Example A-296] — 15-fold lower, 1.3 nM
- O=C(c1ccc(-c2cc[n+]([O-])cc2)cc1)N1CCN(S(=O)(=O)c2cc3ccc(Cl)cc3s2)CC1 [Example A-116, 4-[4-[[4-[(6-Chlorobenzo[b]thien-2-yl)sulfonyl]piperazin-1-yl]carbonyl]phenyl]pyridine N-oxide] — 2.2-fold lower, 8.6 nM
- O=C(c1ccc(-c2ccncc2)cc1)N1CCN(S(=O)(=O)c2ccc3cc(Cl)ccc3c2)CC1 [Example A-1, 1-[(6-Chloronaphthalen-2-yl)sulfonyl]-4-[4-(pyridin-4-yl)benzoyl]piperazine hydrochloride] — 6.5-fold higher, 123 nM
- O=C(CC1CN(S(=O)(=O)c2cc3cc(Cl)ccc3[nH]2)CCN1C(=O)c1ncc(-c2cc[n+]([O-])cc2)s1)N1CCCC1 (stereo not shown) [Example A-298, 4-[2-[[4-[(5-Chloroidol-2-yl)sulfonyl]-2-[(pyrrolidin-1-yl)carbonylmethyl]piperazin-1-yl]carbonyl]thiazol-5-yl]pyridine N-oxide] — 27-fold lower, 0.7 nM
- CN(C)C(=O)C[C@@H]1CN(S(=O)(=O)c2cc3ccc(Cl)cc3s2)C[C@H](CC(=O)N(C)C)N1C(=O)c1ncc(-c2cc[n+]([O-])cc2)cn1 [Example A-279, 4-[2-[[2,cis-6-Bis[(N,N-dimethylcarbamoyl)methyl]-4-[(6-chlorobenzo[b]thien-2-yl)sulfonyl]piperazin-1-yl]carbonyl]pyrimidin-5-yl]pyridine N-oxide] — 1.9-fold lower, 10 nM
- O=C(c1cnccc1-c1ccncc1)N1CCN(S(=O)(=O)c2ccc3cc(Cl)ccc3c2)CC1 [Example A-4, hydrochloride] — 2.8-fold higher, 54 nM
- Cc1c(S(=O)(=O)N2CCN(C(=O)c3ccc(-c4ccncc4)cc3)CC2)sc2ccc(Cl)cc12 [Example A-83, 1-[(5-Chloro-3-methylbenzo[b]thien-2-yl)sulfonyl]-4-[4-(piridin-4-yl)benzoyl]piperazine] — 150-fold higher, 2800 nM
- O=C(c1ccc(-c2cc[n+]([O-])cc2)cc1)N1CCN(S(=O)(=O)c2cc3cc(Cl)ccc3[nH]2)CC1 [Example A-107, 4-[4-[[4-[(5-Chloroindol-2-yl)sulfonyl]piperazin-1-yl]carbonyl]phenyl]pyridine N-oxide] — 4-fold lower, 4.7 nM
- O=C(c1ncc(-c2cccc[n+]2[O-])cn1)N1CCN(S(=O)(=O)c2cc3ccc(Cl)cc3s2)CC1 [Example A-185, 2-[2-[[4-[(6-Chlorobenzo[b]thien-2-yl)sulfonyl]piperazin-1-yl]carbonyl]pyrimidin-5-yl]pyridine N-oxide] — 3-fold lower, 6.3 nM
- NC(=O)C[C@@H]1CN(S(=O)(=O)c2ccc3cc(Cl)ccc3c2)C[C@H](CC(N)=O)N1C(=O)c1ccc(-c2ccncc2)cc1 [Example A-173, cis-2,6-Bis(carbamoylmethyl)-4-[(6-chloronaphthalen-2-yl)sulfonyl]-1-[4-(pyridin-4-yl)benzoyl]piperazine] — 1.9-fold lower, 10 nM

Same assay, conditions: same test as Tables 1-6; read-out: FXa 50% inhibitory concentrations

Point of comparison: CN1CCc2nc(C(=O)N3CCN(S(=O)(=O)c4ccc5cc(Cl)ccc5c4)CC3CC(=O)N3CCOCC3)sc2C1 (stereo not shown) [Example B-63, 4-[(6-Chloronaphthalen-2-yl)sulfonyl]-1-[(6-methyl-4,5,6,7-tetrahydrothiazolo[5,4-c]pyridin-2-yl)carbonyl]-2-[[(morpholin-4-yl)carbonyl]methyl]piperazine hydrochloride], IC50 12.5 nM. Against it:
- C[n+]1ccc2nc(C(=O)N3CCN(S(=O)(=O)c4ccc5cc(Cl)ccc5c4)CC3)sc2c1 [Example B-61] — 2.4-fold higher, 30 nM
- CN1CCc2nc(C(=O)N3CCN(S(=O)(=O)c4cc5cc(Cl)ccc5[nH]4)CC3CC(=O)N3CCOCC3)sc2C1 (stereo not shown) [Example B-99, hydrochloride] — 7.4-fold lower, 1.7 nM
